Reference: patent US9670175B2, “Protected succinates for enhancing mitochondrial ATP-production” (NEUROVIVE PHARMACEUTICALS AB, priority 2012, dated 2017)

What was measured:
[1] = tested on: rotenone-inhibited intact human platelets; experiment: mitochondrial complex II screening assay (high-resolution respirometry); assay type: cell-based; settings: for Mitochondrial Respiration: Complex II-dependent respiration, rotenone-inhibited intact human platelets
Text: FIG. 1 is a schematic figure of mitochondrial complex II screening assay. […] In the assay, mitochondrial function in intact cells is repressed with the respiratory complex I inhibitor rotenone. Drug candidates are compared with endogenous substrates (succinate) before and after permeabilization of the plasma membrane to evaluate bioenergetic enhancement or inhibition.
(§1) Human platelets were isolated from venous blood collected in K2EDTA vials through two centrifugation steps in room temperature. After 10 min at 300 g, platelet rich plasma was collected and transferred to new vials. 5 min at 4600 g yielded a platelet pellet that was resuspended in an appropriate amount of plasma. The cell concentration was determined with a Swelab Alfa Hematocytometer (Boule Medical AB, Stockholm, Sweden).
Measurement of mitochondrial respiration was performed in a high-resolution oxygraph (Oxygraph—2 k, Oroboros Instruments, Innsbruck, Austria) at a constant temperature of 37° C. Platelets were suspended in the 2 mL glass chamber at a concentration of 200-400*10^6 cells/mL.
(1) Initial screen, complex II-effect, was performed with isolated intact platelets in a buffer containing 110 mM sucrose, HEPES 20 mM, taurine 20 mM, K-lactobionate 60 mM, MgCl2 3 mM, KH2PO4 10 mM, EGTA 0.5 mM, BSA 1 g/l, pH 7.1. After baseline respiration with endogenous substrates was established, complex I was inhibited with Rotenone […]. Drug candidates dissolved in DMSO were titrated in steps to 100 μM, 500 μM and 5 mM final concentration. Subsequently, cell membranes were permeabilised with digitonin (1 mg/1*10^6 pit). After stabilized respiration, Succinate 10 mM was added and after the respiration stabilized the experiment was terminated by addition of the complex III inhibitor Antimycin at final concentration 1 μg/mL and the residual respiration measured. […] In the assay, mitochondrial function in intact cells is repressed with the respiratory complex I inhibitor rotenone. Drug candidates are compared with endogenous substrates before and after permeabilization of the plasma membrane to evaluate bioenergetic enhancement or inhibition.
(1) The ideal compound stimulates respiration in rotenone-inhibited intact cells at low concentration in the CII-screening protocol without inhibitory effect on succinate stimulated respiration after permeabilization. After inhibition of respiration with mitochondrial toxins, respiration should be halted. Please refer to FIG. 1. and the listing below.

intact human platelets = experiment: mitochondrial convergent respiration screening assay (FCCP-uncoupled, high-resolution respirometry); assay type: cell-based; settings: control disodium succinate, FIGS. 3A-3C
Text: FIG. 2 is a schematic figure of mitochondrial convergent respiration screening assay. It describes the protocol for evaluating the potency of novel cell-permeable mitochondrial substrates. In the assay, mitochondrial activity is stimulated by uncoupling the mitochondria with the protonophore FCCP. Drug candidates are titrated to obtain the level of maximum convergent (complex I- and complex II-derived) respiration. After rotenone addition, complex II-dependent stimulation is obtained. The complex III-inhibitor antimycin is added to evaluate non mitochondrial oxygen consumption. The reference substance is succinate.
as §1, with “Sweden). […]” for “Sweden).”
(2) In the second protocol, convergent respiration, the same respiration buffer and cell concentrations as described above was used. […] The experiment was terminated by addition of 2 μM Rotenone and 1 μg/mL Antimycin and residual respiration measured. […]

[2] = previously known related compounds
[3] = titrated to 100 μM, 500 μM and 5 mM

## CCOC(=O)CCC(=O)OCC [Diethyl succinate, reference compound]
[1]
  activity in the assays exemplified: inactive
[1]; [2]
  Mitochondrial Respiration: −

## COC(=O)CCC(=O)OC [Dimethyl succinate, reference compound]
[1]
  activity in the assays exemplified: inactive
[1]; [2]
  Mitochondrial Respiration: −

## COC(=O)CCC(=O)OCOC(=O)C(C)(C)C [Example 2, Succinic Acid 2,2-dimethyl-propionyloxymethyl Ester Methyl Ester]
[1]; [3]
  Mitochondrial Respiration: ++

## COC(=O)CCC(=O)OCOC(C)=O [Example 4, Succinic Acid Acetoxymethyl Ester Methyl Ester]
[1]; [3]
  Mitochondrial Respiration: ++

## CC(=O)OC(C)OC(=O)CCC(=O)OC(C)OC(C)=O (stereo not drawn) [Example 5, Succinic Acid bis-(1-acetoxy-ethyl)ester]
Intact human platelets
  respiration (oxygen flux per unit) with stepwise titration compared to control: increase in respiration
[1]; [3]
  Mitochondrial Respiration: +++ (stimulation gradually increases and reaches maximum at ≦0.5 mM)

## COC(=O)CCC(=O)OC(C)OC(C)=O (stereo not drawn) [Example 6, Succinic Acid 1-Acetoxy-Ethyl Ester Methyl Ester]
[1]; [3]
  Mitochondrial Respiration: +

## CCC(OC(C)=O)OC(=O)CCC(=O)OC(CC)OC(C)=O (stereo not drawn) [Example 7, Succinic Acid bis-(1-acetoxy-propyl)ester]
[1]; [3]
  Mitochondrial Respiration: ++

## CCC(=O)OC(C)OC(=O)CCC(=O)OC(C)OC(=O)CC (stereo not drawn) [Example 8, Succinic Acid bis-(1-propionyloxy-ethyl)ester]
[1]; [3]
  Mitochondrial Respiration: ++

## O=C1CCC(=O)OCOCOCO1 [Example 9, 1,3,5,7-Tetraoxa-cycloundecane-8,11-dione]
[1]; [3]
  Mitochondrial Respiration: +

## CCN(CC)C(=O)COC(=O)CCC(=O)OCOC(C)=O [Example 10, Succinic Acid Acetoxymethyl Ester Diethylcarbamoylmethyl Ester]
[1]; [3]
  Mitochondrial Respiration: ++

## CCOC(=O)OC(C)OC(=O)CCC(=O)OCC(=O)N(CC)CC (stereo not drawn) [Example 11, Succinic Acid Diethylcarbamoylmethyl Ester 1-Ethoxycarbonyloxy-Ethyl Ester]
[1]; [3]
  Mitochondrial Respiration: (+)

## CCN(CC)C(=O)COC(=O)CCC(=O)OC(C)OC(C)=O (stereo not drawn) [Example 12, Succinic Acid 1-Acetoxy-Ethyl Ester Diethylcarbamoylmethyl Ester]
[1]; [3]
  Mitochondrial Respiration: +

## CC(=O)OCOC(=O)CCC(=O)OC(C)OC(C)=O (stereo not drawn) [Example 13, Succinic Acid 1-Acetoxy-Ethyl Ester Acetoxymethyl Ester]
Intact human platelets
  respiration (oxygen flux per unit) with stepwise titration compared to control: increase in respiration
[1]; [3]
  Mitochondrial Respiration: +++ (stimulation gradually increases and reaches maximum at ≦0.5 mM)

## CC1(C)OC(=O)C(OC(=O)CCC(=O)OC2OC(C)(C)OC2=O)O1 (stereo not drawn) [Example 14, Succinic Acid bis-(2,2-dimethyl-5-oxo-[1,3]dioxolan-4-yl)ester]
[1]; [3]
  Mitochondrial Respiration: +++ (stimulation gradually increases and reaches maximum at ≦0.5 mM)

## COC(=O)C(OC)OC(=O)CCC(=O)OC(OC)C(=O)OC (stereo not drawn) [Example 15, Succinic Acid bis-(methoxy-methoxycarbonyl-methyl)ester]
[1]; [3]
  Mitochondrial Respiration: (+)

## CCOC(=O)OC(C)OC(=O)CCC(=O)OC(C)OC(C)=O (stereo not drawn) [Example 16, Succinic Acid 1-acetoxy-ethyl Ester 1-ethoxycarbonyloxy-ethyl Ester]
[1]; [3]
  Mitochondrial Respiration: ++

## CC(=O)OC(C)OC(=O)CCC(=O)OCOC(=O)CCC(=O)OC(C)OC(C)=O (stereo not drawn) [Example 17, Succinic Acid 3-(1-acetoxy-ethoxycarbonyl)-propionyloxymethyl Ester 1-acetoxy-ethyl Ester]
[1]; [3]
  Mitochondrial Respiration: +++ (stimulation gradually increases and reaches maximum at ≦0.5 mM)

## CC(=O)OCOC(=O)CCC(=O)OCOC(=O)CCC(=O)OCOC(C)=O [Example 18, Succinic Acid 3-acetoxymethoxycarbonyl-propionyloxymethyl Ester Acetoxymethyl Ester]
[1]; [3]
  Mitochondrial Respiration: +++ (stimulation gradually increases and reaches maximum at ≦0.5 mM)

## COC(=O)CCC(=O)O [Monomethyl succinate, reference compound]
[1]
  activity in the assays exemplified: inactive
[1]; [2]
  Mitochondrial Respiration: −
